Legend:
Type in all cases: functional
[1] = tested on: Enterococcus faecalis; assay: Antibacterial activity against vancomycin-susceptible Enterococcus faecalis assessed as resistant isolates by CLSI M7-A7 broth microdilution method
[2] = tested on: Streptococcus agalactiae; assay: Antibacterial activity against erythromycin-susceptible Streptococcus agalactiae assessed as resistant isolates by CLSI M7-A7 broth microdilution method
[3] = tested on: Enterococcus faecium; assay: Antibacterial activity against vancomycin-resistant Enterococcus faecium assessed as susceptible isolates by CLSI M7-A7 broth microdilution method
[4] = tested on: Enterococcus faecalis; assay: Antibacterial activity against vancomycin-resistant Enterococcus faecalis assessed as susceptible isolates by CLSI M7-A7 broth microdilution method
[5] = tested on: Streptococcus agalactiae; assay: Antibacterial activity against erythromycin-nonsusceptible Streptococcus agalactiae assessed as resistant isolates by CLSI M7-A7 broth microdilution method
[6] = tested on: Streptococcus pyogenes; assay: Antibacterial activity against erythromycin-susceptible Streptococcus pyogenes assessed as resistant isolates by CLSI M7-A7 broth microdilution method
[7] = tested on: Enterococcus faecalis; assay: Antibacterial activity against vancomycin-susceptible Enterococcus faecalis assessed as susceptible isolates by CLSI M7-A7 broth microdilution method
[8] = tested on: Enterococcus faecium; assay: Antibacterial activity against vancomycin-resistant Enterococcus faecium assessed as resistant isolates by CLSI M7-A7 broth microdilution method
[9] = tested on: Streptococcus viridans; assay: Antibacterial activity against penicillin-nonsusceptible Streptococcus viridans assessed as resistant isolates by CLSI M7-A7 broth microdilution method
[10] = tested on: Enterococcus faecalis; assay: Antibacterial activity against vancomycin-resistant Enterococcus faecalis assessed as resistant isolates by CLSI M7-A7 broth microdilution method
[11] = tested on: Streptococcus pyogenes; assay: Antibacterial activity against erythromycin-nonsusceptible Streptococcus pyogenes assessed as resistant isolates by CLSI M7-A7 broth microdilution method

Compound: C[C@H]1COc2c(N3CCN(C)CC3)c(F)cc3c(=O)c(C(=O)O)cn1c23.C[C@H]1COc2c(N3CCN(C)CC3)c(F)cc3c(=O)c(C(=O)O)cn1c23.O [LEVOFLOXACIN]
- Activity [1]: 40.8%
- Activity [2]: 0%
- Activity [3]: 0%
- Activity [4]: 4%
- Activity [5]: 2.4%
- Activity [6]: 0%
- Activity [7]: 59.2%
- Activity [8]: 100%
- Activity [9]: 7.1%
- Activity [10]: 96%
- Activity [11]: 0%
